We go through 17 molecules from ChEMBL document CHEMBL2434963, “Synthesis and cytotoxic activity of some novel steroidal C-17 pyrazolinyl derivatives” (Eur J Med Chem, 2013).

In brackets after ≈: the same amount, converted by molar mass. Where only a bound is given, the exact number is not on record here.

One assay relates to Artemia salina. Nature of the assay: Toxicity in Artemia salina larvae after 24 hrs by microscopic analysis. The format is functional.
The test system of assay [1] is HeLa. Nature of the assay: cells. The following applies: Homo sapiens, 48 h.
Description: Cytotoxicity against human HeLa cells after 48 hrs by MTT assay
Another assay concerns HepG2. Nature of the assay: Cytotoxicity against human HepG2 cells after 48 hrs by MTT assay. It counts as functional, cell-based. As to conditions: HepG2, 48 h. In general terms: Formazan colour is commonly taken as a measure of viable cells.
The next assay has as its system NCI-H460. Nature of the assay: Cytotoxicity against human NCI-H460 cells after 48 hrs by MTT assay. It counts as functional, cell-based. As to conditions: NCI-H460, 48 h.
For assay [2], the system named is HeLa. Nature of the assay: Cell cycle arrest in human HeLa cells assessed as accumulation at G0/G1 phase at 40 ug/ml after 24 hrs by propidium iodide staining-based flow cytometry (reference value: 67.7%). It counts as functional.
The subject of assay [3] is HeLa. Nature of the assay: Cell cycle arrest in human HeLa cells assessed as accumulation at S phase at 40 ug/ml after 24 hrs by propidium iodide staining-based flow cytometry (reference value: 20.6%). It counts as functional. Background: In flow cytometry, cells or beads pass a laser one at a time.
The subject of assay [4] is HeLa. Nature of the assay: Cell cycle arrest in human HeLa cells assessed as accumulation at G0/G1 phase at 10 ug/ml after 24 hrs by propidium iodide staining-based flow cytometry (reference value: 67.7%). The format is functional.
For assay [5], the system named is HeLa. Nature of the assay: Cell cycle arrest in human HeLa cells assessed as accumulation at G2/M phase at 40 ug/ml after 24 hrs by propidium iodide staining-based flow cytometry (reference value: 11.7%). It counts as functional.
Assay [6] relates to HeLa. Nature of the assay: Cell cycle arrest in human HeLa cells assessed as accumulation at S phase at 10 ug/ml after 24 hrs by propidium iodide staining-based flow cytometry (reference value: 20.6%). The format is functional.
For assay [7], the system named is HeLa. Nature of the assay: Cell cycle arrest in human HeLa cells assessed as accumulation at G2/M phase at 20 ug/ml after 24 hrs by propidium iodide staining-based flow cytometry (reference value: 11.7%). It counts as functional.
The subject of assay [8] is HeLa. Nature of the assay: Cell cycle arrest in human HeLa cells assessed as accumulation at G2/M phase at 10 ug/ml after 24 hrs by propidium iodide staining-based flow cytometry (reference value: 11.7%). The format is functional.
Assay [9] concerns HeLa. Nature of the assay: Cell cycle arrest in human HeLa cells assessed as accumulation at G0/G1 phase at 20 ug/ml after 24 hrs by propidium iodide staining-based flow cytometry (reference value: 67.7%). It counts as functional.
Assay [10] concerns HeLa. Nature of the assay: Cell cycle arrest in human HeLa cells assessed as accumulation at S phase at 20 ug/ml after 24 hrs by propidium iodide staining-based flow cytometry (reference value: 20.6%). The format is functional.

Broadly, the LC50 is the concentration lethal to half of the exposed cells or organisms. Broadly, the IC50 is the concentration at which inhibition is half-maximal. A higher IC50 goes with lower potency. As to `CC(=O)N1N=C([C@H]2CC[C@H]3[C@@H]4CCC5=CC(=O)C=C[C@]5(C)[C@H]4CC[C@]23C)CC1c1ccccc1` (some centres undefined), the LC50 in the assay with Artemia salina came out at 18.9 µg/mL (≈ 41.5 µM). Also, the concentration for half-maximal inhibition (IC50) in the assay with HeLa [1] was above 50 µg/mL.

`CC(=O)N1N=C([C@H]2CC[C@H]3[C@@H]4CCC5=CC(=O)C=C[C@]5(C)[C@H]4CC[C@]23C)CC1c1ccccc1Cl` (some centres undefined): the LC50 with Artemia salina came out at 21.7 µg/mL (≈ 44.2 µM). Also, the IC50 in the assay with HeLa [1] is above 50 µg/mL.

On to `CC(=O)N1N=C([C@H]2CC[C@H]3[C@@H]4CCC5=CC(=O)C=C[C@]5(C)[C@H]4CC[C@]23C)CC1c1ccc(Cl)cc1` (some centres undefined), for which the LC50 in the assay on Artemia salina was found to be 36.6 µg/mL (≈ 74.6 µM). In the assay with HeLa [1], this molecule gave an IC50 above 50 µg/mL.

As for `CC(=O)N1N=C([C@H]2CC[C@H]3[C@@H]4CCC5=CC(=O)C=C[C@]5(C)[C@H]4CC[C@]23C)CC1c1ccccc1[N+](=O)[O-]` (some centres undefined), in the assay with Artemia salina, the LC50 was 30.2 µg/mL (≈ 60.2 µM). Moreover, the IC50 in the assay with HeLa [1] is above 50 µg/mL.

Turning to `CC(=O)N1N=C([C@H]2CC[C@H]3[C@@H]4CCC5=CC(=O)C=C[C@]5(C)[C@H]4CC[C@]23C)CC1c1ccc([N+](=O)[O-])cc1` (some centres undefined), in the assay with Artemia salina, the LC50 was determined as 38.2 µg/mL (≈ 76.1 µM). The molecule also had a 50% inhibitory concentration (IC50) with HeLa [1] above 50 µg/mL.

`COc1ccccc1C1CC([C@H]2CC[C@H]3[C@@H]4CCC5=CC(=O)C=C[C@]5(C)[C@H]4CC[C@]23C)=NN1C(C)=O` (some centres undefined): the median lethal concentration (LC50) in the assay with Artemia salina was 44.9 µg/mL (≈ 92.2 µM). Moreover, the IC50 in the assay on HeLa [1] is above 50 µg/mL.

`COc1ccc(C2CC([C@H]3CC[C@H]4[C@@H]5CCC6=CC(=O)C=C[C@]6(C)[C@H]5CC[C@]34C)=NN2C(C)=O)cc1` (some centres undefined): the LC50 in the assay on Artemia salina was above 50 µg/mL. For the same molecule, the concentration for half-maximal inhibition (IC50) in the assay with HeLa [1] is above 50 µg/mL.

`CC(=O)N1N=C([C@H]2CC[C@H]3[C@@H]4CCC5=C(Cl)C(=O)C=C[C@]5(C)[C@H]4CC[C@]23C)CC1c1ccccc1` (some centres undefined): the LC50 in the assay with Artemia salina is 4.99 µg/mL (≈ 10.2 µM). The values for the IC50 in the assay with HeLa [1], with HepG2 and in the assay on NCI-H460 were 13.7 µg/mL (≈ 27.9 µM), 17.3 µg/mL (≈ 35.2 µM) and 13.1 µg/mL (≈ 26.7 µM), respectively.

In the assay on Artemia salina, `CC(=O)N1N=C([C@H]2CC[C@H]3[C@@H]4CCC5=C(Cl)C(=O)C=C[C@]5(C)[C@H]4CC[C@]23C)CC1c1ccc(Cl)cc1` (some centres undefined) showed an LC50 of 10.4 µg/mL (≈ 19.8 µM). Also, the figures for the half-inhibitory concentration (IC50) in the assay with HeLa [1], in the assay on HepG2 and in the assay on NCI-H460 were 26.6 µg/mL (≈ 50.6 µM), 25.3 µg/mL (≈ 48.1 µM) and 13.9 µg/mL (≈ 26.4 µM), respectively.

Regarding `CC(=O)N1N=C([C@H]2CC[C@H]3[C@@H]4CCC5=C(Cl)C(=O)C=C[C@]5(C)[C@H]4CC[C@]23C)CC1c1ccccc1[N+](=O)[O-]` (some centres undefined), the 50% lethal concentration (LC50) with Artemia salina is 7.7 µg/mL (≈ 14.4 µM). For the same molecule, the IC50 in the assay with HeLa [1] is above 50 µg/mL; in the assay on HepG2 it was above 50 µg/mL; in the assay with NCI-H460, 14.8 µg/mL (≈ 27.6 µM).

Turning to `CC(=O)N1N=C([C@H]2CC[C@H]3[C@@H]4CCC5=C(Cl)C(=O)C=C[C@]5(C)[C@H]4CC[C@]23C)CC1c1ccc([N+](=O)[O-])cc1` (some centres undefined), the LC50 in the assay on Artemia salina was 8.43 µg/mL (≈ 15.7 µM). Also, the concentration for half-maximal inhibition (IC50) with HeLa [1], with HepG2 and with NCI-H460 was above 50 µg/mL each time.

In the case of `CC(=O)[C@H]1CC[C@H]2[C@@H]3CCC4=C(Cl)C(=O)C=C[C@]4(C)[C@H]3CC[C@]12C`, in the assay on Artemia salina, the LC50 is above 100 µg/mL. The 50% inhibitory concentration (IC50) is above 50 µg/mL with HeLa [1], above 50 µg/mL in the assay with HepG2 and 26.7 µg/mL (≈ 77 µM) in the assay with NCI-H460.

Take `CC(=O)N1N=C([C@H]2CC[C@H]3[C@@H]4CCC5=C(Cl)C(=O)C=C[C@]5(C)[C@H]4CC[C@]23C)CC1c1ccccc1Cl` (mixture of isomers): the Activity in the assay with HeLa [2] was 47.6%; in the assay on HeLa [3], 41.1%; in the assay on HeLa [4], 55.8%; in the assay with HeLa [5] it was 11.3%; in the assay on HeLa [6], 34.3%; in the assay on HeLa [7] it was 9.7%. Besides, the Activity in the assay on HeLa [8] came to 9.9%; in the assay on HeLa [9], 51.4%; in the assay with HeLa [10], 38.9%. In the assay with Artemia salina, this molecule came in with a median lethal concentration (LC50) of 5.65 µg/mL. Further, the IC50 turned out to be 12.5 µg/mL in the assay on HeLa [1], 24.3 µg/mL in the assay with HepG2 and 10.3 µg/mL in the assay on NCI-H460.

`COc1ccccc1C1CC([C@H]2CC[C@H]3[C@@H]4CCC5=C(Cl)C(=O)C=C[C@]5(C)[C@H]4CC[C@]23C)=NN1C(C)=O` (mixture of isomers) displayed an LC50 in the assay with Artemia salina of 9.92 µg/mL. The 50% inhibitory concentration (IC50) in the assay with HeLa [1] turned out to be 15.3 µg/mL; with HepG2, 16.2 µg/mL; in the assay on NCI-H460, 15.7 µg/mL.

In the assay on Artemia salina, `COc1ccc(C2CC([C@H]3CC[C@H]4[C@@H]5CCC6=C(Cl)C(=O)C=C[C@]6(C)[C@H]5CC[C@]34C)=NN2C(C)=O)cc1` (mixture of isomers) came in with an LC50 of 27.3 µg/mL. The concentration for half-maximal inhibition (IC50) in the assay on HeLa [1] worked out at 19.7 µg/mL; with HepG2, 16.9 µg/mL; in the assay on NCI-H460, 17.9 µg/mL.

With `O=c1[nH]cc(F)c(=O)[nH]1` [FLUOROURACIL], the values for the IC50 with HeLa [1] and with NCI-H460 were 0.887 µg/mL (≈ 6.82 µM) and 2.48 µg/mL (≈ 19.1 µM), respectively.

Regarding `CC(=O)[C@H]1CC[C@H]2[C@@H]3CCC4=CC(=O)CC[C@]4(C)[C@H]3CC[C@]12C` [PROGESTERONE], the LC50 with Artemia salina was above 100 µg/mL. Moreover, the IC50 in the assay with HeLa [1] is above 50 µg/mL.
